Results taken from US20100234377A1 (priority 2007, published 2010).
Where two headings read alike, the source gives them in different places.

Columns and labels:
[1] = target: T1, human Prostaglandin D Synthase (GST2) (Homo sapiens, UniProt O60760); assay: Homogeneous biochemical assay of human Prostaglandin D Synthase (GST2) based on its glutathion-S-transferase activity (GSH conjugation to monochlorobimane, fluorescence)
T1 construct: the open reading frame of human Prostaglandin D Synthase was amplified from cDNA; made in house; host or cells: E. coli TOP10F'
T1 sequence (O60760 whole entry): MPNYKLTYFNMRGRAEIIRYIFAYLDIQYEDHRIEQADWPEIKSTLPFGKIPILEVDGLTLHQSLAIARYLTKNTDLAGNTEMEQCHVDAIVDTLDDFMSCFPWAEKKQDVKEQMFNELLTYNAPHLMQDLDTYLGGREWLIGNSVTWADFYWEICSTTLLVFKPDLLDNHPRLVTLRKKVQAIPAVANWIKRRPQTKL
Outline: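 N-His-tagged human PGD synthase from E. coli, assayed via its GST activity: GSH conjugation to monochlorobimane in 50 mM MES/KOH pH 6.1, 0.7 mM GSH, 2 mM MgCl2. Compounds at final picomolar to triple-digit micromolar concentrations.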

[2] = Mouse microsomal metabolism assay; assay type: in vitro ADME; conditions: liver microsomes; mouse hepatic microsomes, 37° C., phosphate buffer pH 7.4, NADPH regenerating system; read-out: Mouse t½
Procedure: Selected GST2 Inhibitors from Formula I Assessed in Mouse Microsomal Metabolism Assay
Selected GST2 inhibitors of General Formula (I) were screened in a mouse hepatic microsome assay to determine microsomal metabolism.
Test Articles were prepared in 50% acetonitrile.
Mouse hepatic microsomes supplied by BD GenTest Inc or an equivalent reputable supplier.
Test Articles are added to incubation plates containing phosphate buffer pH 7.4 and microsomes at a suitable protein concentration. Incubation plates are placed on a shaking water bath at 37° C. for 5 minutes pre-incubation. An aliquot of the reaction mixture is taken and added to acetonitrile (3:1). This is designated time […]. NADPH regenerating system in phosphate buffer pH 7.4 is added to initiate reactions. Aliquots from the incubation wells are taken at a number of time points and added to acetonitrile. Control incubations contained no microsomes or compounds with known microsomal stabilities. Samples were subject to centrifugation to remove denatured protein and the supernatants were analysed by LCMS.
Half lives were calculated from the log vs time transformed data according to the following equation: […]
Where λ is the slope of the linear regression line under first order (Test Article concentration <Km) conditions.

K+ATP channel = K+ATP channel (Rattus norvegicus, UniProt Q09429); assay: KATP channel receptor binding assay ([3H]glibenclamide); conditions: Table 1; 10 μM compound concentration; [3H]glibenclamide 0.1 nM, rat cerebral cortex; read-out: K^+ATP Channel (% Inhibition of Control Specific Binding)
K+ATP channel, sequence (Q09429 whole entry): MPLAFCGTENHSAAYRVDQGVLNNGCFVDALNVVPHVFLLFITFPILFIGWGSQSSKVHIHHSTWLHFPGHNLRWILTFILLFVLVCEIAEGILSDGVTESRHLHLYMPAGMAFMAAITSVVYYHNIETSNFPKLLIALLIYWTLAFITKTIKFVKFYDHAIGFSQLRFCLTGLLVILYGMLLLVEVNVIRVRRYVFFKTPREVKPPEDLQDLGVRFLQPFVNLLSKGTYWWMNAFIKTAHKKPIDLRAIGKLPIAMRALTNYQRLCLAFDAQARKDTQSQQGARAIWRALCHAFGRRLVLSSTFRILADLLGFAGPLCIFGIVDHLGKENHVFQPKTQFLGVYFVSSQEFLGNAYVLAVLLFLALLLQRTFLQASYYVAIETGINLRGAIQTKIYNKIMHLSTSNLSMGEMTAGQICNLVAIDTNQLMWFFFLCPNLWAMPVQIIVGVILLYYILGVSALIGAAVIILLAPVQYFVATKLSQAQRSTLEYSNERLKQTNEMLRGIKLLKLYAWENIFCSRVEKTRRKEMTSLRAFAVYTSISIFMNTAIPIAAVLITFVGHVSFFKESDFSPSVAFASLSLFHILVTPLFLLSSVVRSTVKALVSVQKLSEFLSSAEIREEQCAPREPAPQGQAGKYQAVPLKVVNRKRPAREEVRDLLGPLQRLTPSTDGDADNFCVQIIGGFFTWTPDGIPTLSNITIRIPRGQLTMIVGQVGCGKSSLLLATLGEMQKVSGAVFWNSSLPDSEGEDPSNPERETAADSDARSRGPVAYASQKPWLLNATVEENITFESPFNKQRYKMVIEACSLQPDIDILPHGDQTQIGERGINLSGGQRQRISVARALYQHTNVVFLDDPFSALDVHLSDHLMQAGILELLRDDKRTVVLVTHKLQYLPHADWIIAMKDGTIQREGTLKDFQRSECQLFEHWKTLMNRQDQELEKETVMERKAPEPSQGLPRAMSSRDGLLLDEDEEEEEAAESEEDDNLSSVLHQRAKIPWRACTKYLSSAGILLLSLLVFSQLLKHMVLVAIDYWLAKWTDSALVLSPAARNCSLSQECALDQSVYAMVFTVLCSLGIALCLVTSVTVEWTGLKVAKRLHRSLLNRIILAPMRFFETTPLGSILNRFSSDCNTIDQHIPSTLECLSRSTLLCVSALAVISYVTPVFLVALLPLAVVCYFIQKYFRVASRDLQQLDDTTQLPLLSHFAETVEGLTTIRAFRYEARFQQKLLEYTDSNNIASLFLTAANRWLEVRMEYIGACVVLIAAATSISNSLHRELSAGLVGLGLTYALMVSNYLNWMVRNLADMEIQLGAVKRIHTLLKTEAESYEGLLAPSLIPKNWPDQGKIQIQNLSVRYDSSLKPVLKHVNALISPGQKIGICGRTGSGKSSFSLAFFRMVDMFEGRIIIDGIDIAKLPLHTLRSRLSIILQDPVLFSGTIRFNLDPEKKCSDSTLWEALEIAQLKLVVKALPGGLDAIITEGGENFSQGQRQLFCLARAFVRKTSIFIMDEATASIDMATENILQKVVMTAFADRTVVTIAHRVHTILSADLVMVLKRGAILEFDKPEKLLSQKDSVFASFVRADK
K+ATP channel, sequence (P70673 whole entry partner): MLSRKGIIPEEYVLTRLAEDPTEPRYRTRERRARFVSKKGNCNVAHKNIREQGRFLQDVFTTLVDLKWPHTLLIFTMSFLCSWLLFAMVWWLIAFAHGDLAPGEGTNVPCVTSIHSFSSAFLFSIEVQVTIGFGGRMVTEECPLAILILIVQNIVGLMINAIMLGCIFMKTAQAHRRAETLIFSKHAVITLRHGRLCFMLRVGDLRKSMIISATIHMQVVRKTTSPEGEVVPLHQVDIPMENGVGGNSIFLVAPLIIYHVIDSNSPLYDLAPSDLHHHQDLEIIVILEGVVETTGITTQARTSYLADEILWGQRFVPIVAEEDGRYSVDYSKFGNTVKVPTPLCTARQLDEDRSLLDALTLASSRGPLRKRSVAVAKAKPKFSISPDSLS
Procedure: KATP Channel Mediated Binding Assay
The compounds of Comparative Examples I to XII and Compounds 59, 30, 22, 76 and 69 were tested for their effects in an in vitro receptor binding KATP channel assay.
The specific ligand binding to the receptor is defined as the difference between the total binding and the non-specific binding determined in the presence of an excess of unlabelled ligand. The results are expressed as a percent inhibition of control specific binding obtained in the presence of the test compounds.
In each experiment, the respective reference compound was tested concurrently with the test compounds in order to assess the assay suitability. It was tested at several concentrations (for IC50 value determination), and the data were compared with historical values.

[3] = given beside the compound name in Examples 1 to 167, read-out: Potency Range (GST2 IC50)
[4] = Table 1, read-out: GST2 IC50 Range

Compound	IC50 [1, 3] [µM]	half-life [2] [min]	IC50 [1, 4] [µM]	inhibition at 10 µM (K+ATP channel) [%]
O=C(Nc1ccc(NC(=O)N2CCN(C(=O)c3cccc(F)c3)CC2)cc1)c1ccncc1 [Compound 123, 4-(3-Fluoro-benzoyl)-piperazine-1-carboxylic acid {4-[(pyridine-4-carbonyl)-amino]-phenyl}-amide]	0.101 to 1	> 60	–	–
CS(=O)(=O)Nc1ccc(NC(=O)N2CCN(C(=O)c3cccc(F)c3)CC2)cc1 [Compound 126, 4-(3-Fluoro-benzoyl)-piperazine-1-carboxylic acid (4-methanesulfonylamino-phenyl)-amide]	0.101 to 1	> 60	–	–
O=C(Nc1ccc(N2CCOCC2)nc1)N1CCN(C(=O)c2cccc(F)c2)CC1 [Compound 154, 4-(3-Fluoro-benzoyl)-piperazine-1-carboxylic acid (6-morpholin-4-yl-pyridin-3-yl)-amide]	0.011 to 0.1	> 60	–	–
O=C(Nc1ccc(F)cc1)N1CCN(C(=O)c2cccc(F)c2)CC1 [Compound 155, 4-(3-Fluoro-benzoyl)-piperazine-1-carboxylic acid (4-fluoro-phenyl)-amide]	0.101 to 1	59.4	–	–
Cc1ccccc1C(=O)N1CCN(C(=O)Nc2ccc(F)cc2)CC1 [Compound 156, 4-(2-Methyl-benzoyl)-piperazine-1-carboxylic acid (4-fluoro-phenyl)-amide]	0.101 to 1	31.4	–	–
O=C(Nc1cc(C(F)(F)F)cc(C(F)(F)F)c1)N1CCN(C(=O)c2ccco2)CC1 [Compound I, 4-(Furan-2-carbonyl)-piperazine-1-carboxylic acid (3,5-bis-trifluoromethyl-phenyl)-amide, reference compound]	–	–	0.101 to 1	-1
O=C(Nc1cc(Cl)cc(Cl)c1)N1CCN(C(=O)c2ccco2)CC1 [Compound II, 4-(Furan-2-carbonyl)-piperazine-1-carboxylic acid (3,5-dichloro-phenyl)-amide, reference compound]	–	–	0.101 to 1	-17
O=C(Nc1cc(C(F)(F)F)ccc1Cl)N1CCN(C(=O)c2ccco2)CC1 [Compound III, 4-(Furan-2-carbonyl)-piperazine-1-carboxylic acid (2-chloro-5-trifluoromethyl-phenyl)-amide, reference compound]	–	–	0.101 to 1	-8
O=C(c1ccco1)N1CCN(C(=S)Nc2cc(Cl)cc(Cl)c2)CC1 [Compound IV, 4-(Furan-2-carbonyl)-piperazine-1-carbothioic acid (3,5-dichloro-phenyl)-amide, reference compound]	–	–	0.101 to 1	-7
O=C(c1ccccc1)N1CCN(C(=S)Nc2cc(C(F)(F)F)cc(C(F)(F)F)c2)CC1 [Compound IX, 4-Benzoyl-piperazine-1-carbothioic acid (3,5-bis-trifluoromethyl-phenyl)-amide, reference compound]	–	–	0.101 to 1	10
O=C(c1ccco1)N1CCN(C(=S)Nc2cc(C(F)(F)F)ccc2Cl)CC1 [Compound V, 4-(Furan-2-carbonyl)-piperazine-1-carbothioic acid (2-chloro-5-trifluoromethyl-phenyl)-amide, reference compound]	–	–	0.101 to 1	-20
O=C(c1ccco1)N1CCN(C(=S)Nc2cc(C(F)(F)F)cc(C(F)(F)F)c2)CC1 [Compound VI, 4-(Furan-2-carbonyl)-piperazine-1-carbothioic acid (3,5-bis-trifluoromethyl-phenyl)-amide]	–	–	–	4
O=C(Nc1cc(Cl)cc(Cl)c1)N1CCN(C(=O)c2ccccc2)CC1 [Compound VII, 4-Benzoyl-piperazine-1-carboxylic acid (3,5-dichloro-phenyl)-amide, reference compound]	–	–	0.011 to 0.1	-10
O=C(Nc1cc(C(F)(F)F)ccc1Cl)N1CCN(C(=O)c2ccccc2)CC1 [Compound VIII, 4-Benzoyl-piperazine-1-carboxylic acid (2-chloro-5-trifluoromethyl-phenyl)-amide, reference compound]	–	–	0.101 to 1	-3
